The values below come from patent publication US4962111A (priority 1989, dated 1990).

The subject of test [1] is M. tb. 311. As to the kind of experiment: microbe, parasite or virus in culture. It is filed as cell-based. The settings on record: Mycobacterium tuberculosis, 99% (2 log) inhibition, pH 5.8.
Test [2] has as its system Mycobacterium tuberculosis (laboratory mutant, nitrosoguanidine induced, resistant to pyrazinamide). It is filed as cell-based. The following applies: for MIC: pH 5.8. Set-up: MIC: unit not given beside the values.
Test [3] concerns Mycobacterium tuberculosis (laboratory mutant, nitrosoguanidine induced, resistant to pyrazinoic acid). It is filed as cell-based. Set-up: MIC: unit not given beside the values.
Test [4] deals with Mycobacterial populations. The settings on record: cited from earlier work.

Values after ≈ are worked out from the molar mass of the structure shown. Values joined by “and” are separate entries in the source; they are usually repeats but may differ in a detail not shown here. Equal values may be shown once.

As to `C=CCOC(=O)c1cnccn1` [Allyl Pyrazinoate], the MIC in test [1] came out at 6.25 mg/L (≈ 38.1 µM).

For the compound `CCCOC(=O)c1cnccn1` [n-Propyl Pyrazinoate], the MIC in test [1] is 6.25 mg/L (≈ 37.6 µM); in test [2], 12.5 and 6.25.

For `Cc1ccc(OC(=O)c2cnccn2)cc1` [p-Tolyl Pyrazinoate], the MIC in test [1] was 12.5 mg/L (≈ 58.4 µM); in test [2], 12.5 and 25; in test [3] (pH 5.8), 12.5 and 6.25.

Consider `Nc1ccc(C(=O)O)c(O)c1` [p-aminosalicylic acid], for which the “suppression of emergence of resistance” value in test [4] (combination with streptomycin) was “can delay development of streptomycin resistance”.

Take `NC(=O)c1cnccn1` [pyrazinamide]: the MIC in test [1] was over 200 mg/L. The “concentration required to achieve a 99% inhibition of growth” value in test [2] and in test [3] was over 200 µg/mL in each case. Besides, the development of resistance entry in test [4] (when used alone) is reported as “resistance develops quickly”.

Take `O=C(OCC(F)(F)F)c1cnccn1` [β, β, β-Trifluoroethyl Pyrazinoate]: in test [1], the MIC is 25 mg/L (≈ 121 µM).
